The values that follow come from ChEMBL document CHEMBL1201862, “PubChem BioAssay data set” (2004).

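In this assay, cells in 96-well plates receive the compound at five concentrations for 48 hours. Endpoints are linearly interpolated between the surrounding concentrations. At the GI50, growth is halved.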 The source made the active and inactive calls. Cut-off read from the data, not from the text of the source: active = GI50 up to about 1.1 µM and inactive = higher.

Some test systems named below: SNB-19; MDA-MB-231; MCF7; RPMI-8226; Malme-3M; HCC 2998; CAKI-1; ACHN; SNB-75; IGROV-1; SK-MEL-28; NCI-H23; LOX IMVI; HL-60; UO-31; MDA-N; SF-268; KM12; BT-549; U-251.
Common to all, as to test: growth of human tumour cells (NCI), 48 h

On to `CCN(CC)C(=S)SC1CCOP(=O)(N(CCCl)CCCl)N1C` (stereo not given), for which the GI50 was > 92.9 µM (inactive) in the test on SNB-19; > 100 µM (inactive) with MDA-MB-231; 69.3 µM (inactive) with MCF7; 1.34 µM (inactive) in the test with RPMI-8226; 27.5 µM (inactive) in the test on Malme-3M; 33.4 µM (inactive) with HCC 2998. Also, the GI50 is 45.6 µM (inactive) in the test with CAKI-1; 38.9 µM (inactive) with ACHN; > 55.1 µM (inactive) with SNB-75; 4.34 µM (inactive) in the test on IGROV-1; 26.9 µM (inactive) in the test with SK-MEL-28; > 100 µM (inactive) in the test with NCI-H23. In addition, the GI50 with LOX IMVI was 1.41 µM (inactive); in the test with HL-60, 0.509 µM (active); with UO-31, 67.8 µM (inactive); in the test with MDA-N, > 100 µM (inactive); with SF-268, > 50.7 µM (inactive); with KM12, 7.19 µM (inactive). Also, the GI50 in the test on BT-549 was > 100 µM (inactive).
On to `C#CCn1c(=O)c(C)cn(/C(=C/C(=O)OCC)C(=O)OCC)c1=O`, for which the GI50 is 14.6 µM (inactive) in the test on SNB-19; 15.3 µM (inactive) in the test on MDA-MB-231; 2.97 µM (inactive) in the test with MCF7; 3.98 µM (inactive) in the test on RPMI-8226; 1.59 µM (inactive) with Malme-3M; 17.8 µM (inactive) in the test with HCC 2998. In addition, the GI50 was 1.66 µM (inactive) in the test with CAKI-1; 1.84 µM (inactive) in the test on ACHN; 15 µM (inactive) in the test on SNB-75; 3.75 µM (inactive) in the test with IGROV-1; 4.9 µM (inactive) in the test with SK-MEL-28; 9.57 µM (inactive) in the test with NCI-H23. The GI50 is 10.4 µM (inactive) with LOX IMVI; 3.61 µM (inactive) in the test on HL-60; 11.3 µM (inactive) with UO-31; 15 µM (inactive) with MDA-N; 12.4 µM (inactive) in the test on SF-268; 17.4 µM (inactive) in the test on KM12. In addition, the GI50 is 8.11 µM (inactive) in the test on BT-549 and 9.98 µM (inactive) in the test with U-251.
Turning to `Nc1ccc2c(SCc3ccc([N+](=O)[O-])cc3)c3ccccc3nc2c1`, the GI50 in the test on SNB-19 is 21.9 µM (inactive); in the test on MDA-MB-231 it was 25.5 µM (inactive); in the test on MCF7, 13.6 µM (inactive); in the test with RPMI-8226 it was 2.7 µM (inactive); with Malme-3M, 13.5 µM (inactive); with HCC 2998, 21.5 µM (inactive). Also, the GI50 in the test on CAKI-1 is 13.3 µM (inactive); in the test on ACHN, 5 µM (inactive); in the test on SNB-75, 17.7 µM (inactive); in the test on IGROV-1, 19.5 µM (inactive); with SK-MEL-28, 15.6 µM (inactive); with NCI-H23, 17 µM (inactive). Further, the GI50 with LOX IMVI is 6.84 µM (inactive); in the test on HL-60, 1.31 µM (inactive); with UO-31 it was 14 µM (inactive); in the test on MDA-N, 12.8 µM (inactive); with SF-268, 15.2 µM (inactive); with KM12, 12.5 µM (inactive). The values for the GI50 in the test on BT-549 and in the test on U-251 were 17.9 µM (inactive) and 18.2 µM (inactive), respectively.
For the molecule `CCN(CC)CCOC(=O)CCN1CC2CCC(CC2)C1`, the GI50 in the test on SNB-19, in the test with MDA-MB-231, in the test with MCF7, in the test on RPMI-8226, in the test on Malme-3M and in the test on HCC 2998 was > 100 µM (inactive) each time. Further, the GI50 in the test on CAKI-1 is > 100 µM (inactive); with ACHN it was > 100 µM (inactive); with SNB-75, 78.2 µM (inactive); in the test on IGROV-1 it was > 100 µM (inactive); with SK-MEL-28 it was > 100 µM (inactive); with NCI-H23, > 100 µM (inactive). Further, the GI50 with LOX IMVI, in the test with HL-60, in the test with UO-31, in the test on MDA-N, in the test on KM12 and in the test with BT-549 was > 100 µM (inactive) throughout. Besides, in the test with U-251, the GI50 is > 100 µM (inactive).
Consider `CCOC(=O)/C=C/[C@H](O[Si](c1ccccc1)(c1ccccc1)c1ccccc1)C(C)(C)C`, for which the GI50 is > 31.6 µM (inactive) in the test with SNB-19; > 31.6 µM (inactive) with MDA-MB-231; > 31.6 µM (inactive) with MCF7; 3.44 µM (inactive) in the test on RPMI-8226; > 31.6 µM (inactive) in the test with Malme-3M; 5.92 µM (inactive) with HCC 2998. The GI50 was 28.4 µM (inactive) in the test on CAKI-1; > 31.6 µM (inactive) in the test on ACHN; > 31.6 µM (inactive) in the test with SNB-75; > 31.6 µM (inactive) with IGROV-1; > 10 µM (inactive) in the test with SK-MEL-28; > 31.6 µM (inactive) with NCI-H23. In addition, the GI50 in the test with LOX IMVI was > 31.6 µM (inactive); with HL-60 it was > 100 µM (inactive); with UO-31, > 31.6 µM (inactive); in the test with MDA-N, > 31.6 µM (inactive); in the test with SF-268, > 31.6 µM (inactive); in the test with KM12, 15.8 µM (inactive). Also, the GI50 in the test with BT-549 is > 10 µM (inactive); with U-251, > 31.6 µM (inactive).
For the molecule `NC1=NN(c2ccccc2)C2(c3ccncc3C(=O)O)C1C(N)=NN2c1ccccc1` (stereo not given), the GI50 with SNB-19, with MDA-MB-231, with MCF7, in the test with RPMI-8226, in the test on Malme-3M and in the test on HCC 2998 was > 100 µM (inactive) throughout. Further, the GI50 in the test with CAKI-1, in the test on ACHN, with SNB-75, with IGROV-1, in the test on SK-MEL-28 and in the test on NCI-H23 was > 100 µM (inactive) each time. For the same molecule, the GI50 in the test on LOX IMVI, in the test with HL-60, with UO-31, with MDA-N, in the test with SF-268 and with KM12 was > 100 µM (inactive) throughout. The GI50 in the test with BT-549 and in the test with U-251 was > 100 µM (inactive) each time.
As to `COC(=O)C1=NN2c3ccccc3C(=O)OCCC2(C)C1` (stereo not given), the GI50 with MDA-MB-231, in the test on MCF7, in the test on RPMI-8226, in the test with Malme-3M, with HCC 2998 and with CAKI-1 was > 100 µM (inactive) throughout. Further, the GI50 in the test on ACHN, with SNB-75, in the test on IGROV-1, with SK-MEL-28, in the test with NCI-H23 and with LOX IMVI was > 100 µM (inactive) in each case. Also, the GI50 with HL-60, in the test on UO-31, in the test with MDA-N, in the test on SF-268, in the test with KM12 and in the test with BT-549 was > 100 µM (inactive) in each case. Also, the GI50 in the test on U-251 is > 100 µM (inactive).
Take `CCN(CC)CC(O)c1ccc2ccc3ccccc3c2c1` (stereo not given): the GI50 with SNB-19 was 14.7 µM (inactive); with MDA-MB-231, 14.5 µM (inactive); in the test on MCF7, 14.8 µM (inactive); with RPMI-8226, 18.9 µM (inactive); in the test on Malme-3M, 16.9 µM (inactive); in the test with HCC 2998, 11 µM (inactive). Moreover, the GI50 in the test on CAKI-1 was 13.1 µM (inactive); with ACHN, 14.3 µM (inactive); in the test on SNB-75, 19.1 µM (inactive); in the test with IGROV-1, 16.2 µM (inactive); in the test with SK-MEL-28, 19.7 µM (inactive); with NCI-H23 it was 16.9 µM (inactive). Also, the GI50 was 17.9 µM (inactive) in the test on LOX IMVI; 14.1 µM (inactive) in the test on HL-60; 11.2 µM (inactive) in the test with UO-31; 15.6 µM (inactive) in the test with MDA-N; 17.8 µM (inactive) in the test on SF-268; 15.4 µM (inactive) with KM12. Moreover, the GI50 in the test on BT-549 is 15.8 µM (inactive); with U-251, 13.3 µM (inactive).
As to `CC1=C(C#N)C2C(=C(N)Oc3ccccc32)C(N)=N1` (stereo not given), the GI50 in the test on SNB-19 is 21.8 µM (inactive); in the test on MDA-MB-231, 14 µM (inactive); in the test on MCF7, 6.56 µM (inactive); in the test with RPMI-8226, 24 µM (inactive); with Malme-3M, 16 µM (inactive); in the test on HCC 2998, 29.4 µM (inactive). The GI50 is 19.1 µM (inactive) in the test with CAKI-1; 27.7 µM (inactive) in the test on ACHN; 18.7 µM (inactive) with SNB-75; 25.4 µM (inactive) in the test on IGROV-1; > 10 µM (inactive) in the test on NCI-H23; 20.1 µM (inactive) in the test with LOX IMVI. Further, the GI50 in the test on HL-60 was 29.1 µM (inactive); in the test on UO-31, 17.4 µM (inactive); in the test on MDA-N it was 21.8 µM (inactive); in the test on SF-268, 24.5 µM (inactive); with KM12 it was 26.4 µM (inactive); in the test with BT-549, 32 µM (inactive). Also, the GI50 in the test on U-251 is 34 µM (inactive).
As to `Cn1c(=S)[nH]c(N)c(Cc2ccccc2)c1=O`, the GI50 in the test with SNB-19 is > 100 µM (inactive); in the test with MDA-MB-231 it was > 100 µM (inactive); in the test with MCF7 it was > 100 µM (inactive); in the test with RPMI-8226, > 100 µM (inactive); with Malme-3M it was 78 µM (inactive); in the test on HCC 2998 it was > 100 µM (inactive). Moreover, the GI50 with CAKI-1 is > 100 µM (inactive); in the test with ACHN it was > 100 µM (inactive); in the test with SNB-75 it was 20.3 µM (inactive); in the test with IGROV-1, 21.2 µM (inactive); with SK-MEL-28 it was > 100 µM (inactive); in the test on NCI-H23 it was > 100 µM (inactive). Also, the GI50 in the test on LOX IMVI is > 100 µM (inactive); in the test on HL-60, > 100 µM (inactive); with MDA-N it was > 100 µM (inactive); in the test on SF-268 it was > 100 µM (inactive); with KM12, 66.1 µM (inactive); in the test with BT-549, > 100 µM (inactive). For the same molecule, the GI50 in the test with U-251 is > 100 µM (inactive).
